Experimental data: ChEMBL document CHEMBL4732126, “Design, synthesis, and biodistribution studies of new analogues of marine alkaloids: Potent in vitro and in vivo fungicidal agents against Candida spp” (Eur J Med Chem, 2021)
In brackets after ≈: the same amount, converted by molar mass.

Legend:
Format in all cases: functional
Candida tropicalis [1] = test: Antifungal activity against Candida tropicalis ATCC 28707 assessed as reduction in fungal growth incubated for 48 hrs by broth microdilution method
Pichia kudriavzevii [2] = test: Antifungal activity against Candida krusei ATCC 34135 assessed as reduction in fungal growth incubated for 48 hrs by broth microdilution method
Candida albicans [3] = test: Antifungal activity against Candida albicans isolate 9 assessed as reduction in fungal growth incubated for 48 hrs by broth microdilution method
Candida albicans [4] = test: Antifungal activity against Candida albicans isolate 8 assessed as reduction in fungal growth incubated for 48 hrs by broth microdilution method
Candida albicans [5] = test: Fungicidal activity against Candida albicans isolate 6 assessed as fungal killing incubated for 48 hrs followed by plating on SD agar plate
Candida albicans [6] = test: Antifungal activity against Candida albicans isolate 7 assessed as reduction in fungal growth incubated for 48 hrs by broth microdilution method
Candida albicans [7] = test: Antifungal activity against Candida albicans isolate 10 assessed as reduction in fungal growth incubated for 48 hrs by broth microdilution method
Nakaseomyces glabratus [8] = test: Antifungal activity against Candida glabrata ATCC 2001 assessed as reduction in fungal growth incubated for 48 hrs by broth microdilution method
Candida albicans [9] = test: Antifungal activity against Candida albicans isolate 11 assessed as reduction in fungal growth incubated for 48 hrs by broth microdilution method
Pichia kudriavzevii [10] = test: Fungicidal activity against Candida krusei ATCC 34135 assessed as fungal killing incubated for 48 hrs followed by plating on SD agar plate
Candida albicans [11] = test: Fungicidal activity against Candida albicans isolate 9 assessed as fungal killing incubated for 48 hrs followed by plating on SD agar plate
Candida tropicalis [12] = test: Fungicidal activity against Candida tropicalis ATCC 28707 assessed as fungal killing incubated for 48 hrs followed by plating on SD agar plate; details: for MFC: read-out: MFC99.9
Candida albicans [13] = test: Fungicidal activity against Candida albicans ATCC 10231 assessed as fungal killing incubated for 48 hrs followed by plating on SD agar plate
Candida albicans [14] = test: Antifungal activity against Candida albicans ATCC 18804 assessed as reduction in fungal growth incubated for 48 hrs by broth microdilution method
Candida albicans [15] = test: Antifungal activity against Candida albicans ATCC 10231 assessed as reduction in fungal growth incubated for 48 hrs by broth microdilution method
Candida albicans [16] = test: Antifungal activity against Candida albicans isolate 6 assessed as reduction in fungal growth incubated for 48 hrs by broth microdilution method
Candida albicans [17] = test: Fungicidal activity against Candida albicans isolate 7 assessed as fungal killing incubated for 48 hrs followed by plating on SD agar plate
Candida albicans [18] = test: Antifungal activity against Candida albicans isolate 12 assessed as reduction in fungal growth incubated for 48 hrs by broth microdilution method
Candida albicans [19] = test: Fungicidal activity against Candida albicans isolate 10 assessed as fungal killing incubated for 48 hrs followed by plating on SD agar plate
Candida albicans [20] = test: Fungicidal activity against Candida albicans isolate 12 assessed as fungal killing incubated for 48 hrs followed by plating on SD agar plate
Candida albicans [21] = test: Fungicidal activity against Candida albicans isolate 11 assessed as fungal killing incubated for 48 hrs followed by plating on SD agar plate
Candida albicans [22] = test: Antifungal activity against Candida albicans isolate 13 assessed as reduction in fungal growth incubated for 48 hrs by broth microdilution method
Candida albicans [23] = test: Fungicidal activity against Candida albicans isolate 13 assessed as fungal killing incubated for 48 hrs followed by plating on SD agar plate
Candida albicans [24] = test: Fungicidal activity against Candida albicans ATCC 18804 assessed as fungal killing incubated for 48 hrs followed by plating on SD agar plate
Nakaseomyces glabratus [25] = test: Fungicidal activity against Candida glabrata ATCC 2001 assessed as fungal killing incubated for 48 hrs followed by plating on SD agar plate
Candida albicans [26] = test: Fungicidal activity against Candida albicans isolate 8 assessed as fungal killing incubated for 48 hrs followed by plating on SD agar plate
Nakaseomyces glabratus [27] = test: Antifungal activity against Candida glabrata ATCC 2001 assessed as reduction in fungal growth incubated for 48 hrs in presence of ergosterol by broth microdilution method
Candida albicans [28] = test: Antibiofilm activity against Candida albicans ATCC 10231 assessed as reduction in mature biofilm at 125 ug/ml incubated for 48 hrs by crystal violet staining based spectrophotometric analysis relative to control; details: dose 125.0 µg/ml
Candida albicans [29] = test: Antifungal activity against Candida albicans ATCC 10231 assessed as reduction in fungal growth incubated for 48 hrs in presence of ergosterol by broth microdilution method
Candida tropicalis [30] = test: Antifungal activity against Candida tropicalis ATCC 28707 assessed as reduction in fungal growth incubated for 48 hrs in presence of ergosterol by broth microdilution method
Pichia kudriavzevii [31] = test: Antifungal activity against Candida krusei ATCC 34135 assessed as reduction in fungal growth incubated for 48 hrs in presence of ergosterol by broth microdilution method

| Compound | MIC (Candida tropicalis [1]) | MIC (Pichia kudriavzevii [2]) | MIC (Candida albicans [3]) | MIC (Candida albicans [4]) | MIC (Candida albicans [6]) | MIC (Candida albicans [7]) | MIC (Nakaseomyces glabratus [8]) | MIC (Candida albicans [9]) | MFC (Candida tropicalis [12]) | MIC (Candida albicans [14]) | MIC (Candida albicans [15]) | MIC (Candida albicans [16]) | MIC (Candida albicans [18]) | MIC (Candida albicans [22]) | further results |
| --- | --- | --- | --- | --- | --- | --- | --- | --- | --- | --- | --- | --- | --- | --- | --- |
| COC(=O)CCNCCCCCCCCCCCCOCCCc1cccnc1 | 160 µg/mL (≈ 393 µM) | 250 µg/mL (≈ 615 µM) | 250 µg/mL (≈ 615 µM) | > 500 µg/mL | 250 µg/mL (≈ 615 µM) | 250 µg/mL (≈ 615 µM) | 160 µg/mL (≈ 393 µM) | 250 µg/mL (≈ 615 µM) | 160 µg/mL (≈ 393 µM) | 250 µg/mL (≈ 615 µM) | 250 µg/mL (≈ 615 µM) | 250 µg/mL (≈ 615 µM) | 250 µg/mL (≈ 615 µM) | 160 µg/mL (≈ 393 µM) | MFC (Candida albicans [5]; read-out: MFC99.9): > 500 µg/mL; MFC (Pichia kudriavzevii [10]; read-out: MFC99.9): 250 µg/mL (≈ 615 µM); MFC (Candida albicans [11]; read-out: MFC99.9): 250 µg/mL (≈ 615 µM); MFC (Candida albicans [13]; read-out: MFC99.9): 250 µg/mL (≈ 615 µM); MFC (Candida albicans [17]; read-out: MFC99.9): 250 µg/mL (≈ 615 µM); MFC (Candida albicans [19]; read-out: MFC99.9): 250 µg/mL (≈ 615 µM); MFC (Candida albicans [20]; read-out: MFC99.9): > 500 µg/mL; MFC (Candida albicans [21]; read-out: MFC99.9): 250 µg/mL (≈ 615 µM); MFC (Candida albicans [23]; read-out: MFC99.9): 160 µg/mL (≈ 393 µM); MFC (Candida albicans [24]; read-out: MFC99.9): 250 µg/mL (≈ 615 µM); MFC (Nakaseomyces glabratus [25]; read-out: MFC99.9): 160 µg/mL (≈ 393 µM) |
| NYSTATIN | 2 µg/mL | 8 µg/mL | 4 µg/mL | 4 µg/mL | 4 µg/mL | 4 µg/mL | 4 µg/mL | 4 µg/mL |  | 4 µg/mL | 4 µg/mL | 4 µg/mL | 2 µg/mL | 2 µg/mL | MFC99.9 (Candida albicans [5]): 4 µg/mL; MFC99.9 (Candida albicans [26]): 4 µg/mL; MFC99.9 (Pichia kudriavzevii [10]): 8 µg/mL; MIC (Nakaseomyces glabratus [27]): 31.2 µg/mL; MFC99.9 (Candida albicans [11]): 4 µg/mL; inhibition (Candida albicans [28]): 25%; MFC99.9 (Candida tropicalis [12]): 2 µg/mL; MIC (Candida albicans [29]): 31.2 µg/mL; MFC99.9 (Candida albicans [13]): 4 µg/mL; MIC (Candida tropicalis [30]): 3.9 µg/mL; MFC99.9 (Candida albicans [17]): 4 µg/mL; MFC99.9 (Candida albicans [19]): 4 µg/mL; MFC99.9 (Candida albicans [20]): 4 µg/mL; MFC99.9 (Candida albicans [21]): 4 µg/mL; MFC99.9 (Candida albicans [23]): 2 µg/mL; MIC (Pichia kudriavzevii [31]): 31.2 µg/mL; MFC99.9 (Candida albicans [24]): 4 µg/mL; MFC99.9 (Nakaseomyces glabratus [25]): 4 µg/mL |
| [N-]=[N+]=NCCCCCCCCCCCCOCCCc1cccnc1 | 40 µg/mL (≈ 115 µM) | > 500 µg/mL | > 500 µg/mL | > 500 µg/mL | > 500 µg/mL | > 500 µg/mL | > 500 µg/mL | > 500 µg/mL | 160 µg/mL (≈ 462 µM) | > 500 µg/mL | > 500 µg/mL | > 500 µg/mL | > 500 µg/mL | > 500 µg/mL |  |
